How the values were obtained:
[1] = test system: HCT-116; assay: Antiproliferative activity against human HCT116 cells after 72 hrs by MTT assay; format: functional, cell-based; settings: HCT-116, 72 h
[2] = test system: HCT-15; assay: Antiproliferative activity against human HCT15 cells after 72 hrs by MTT assay; format: functional, cell-based; settings: HCT-15, 72 h
[3] = test system: LN-229; assay: Antiproliferative activity against human LN229 cells after 72 hrs by MTT assay; format: functional, cell-based; settings: LN-229, 72 h
[4] = test system: A2780; assay: Antiproliferative activity against human A2780 cells after 72 hrs by MTT assay; format: functional, cell-based; settings: A2780, 72 h
[5] = test system: CHO; assay: Cytotoxicity against CHO cells assessed as reduction in cell survival after 72 hrs by MTT assay; format: ADME, cell-based; settings: Cricetulus griseus
[6] = Antiproliferative activity against human GBM10 cells after 72 hrs by MTT assay; format: functional, cell-based; settings: GBM10, 72 h
[7] = test system: HepG2; assay: Antiproliferative activity against human HepG2 cells after 72 hrs by MTT assay; format: functional, cell-based; settings: HepG2, 72 h
[8] = test system: PC-3; assay: Antiproliferative activity against human PC3 cells after 72 hrs by MTT assay; format: functional, cell-based; settings: PC-3, 72 h
[9] = test system: NCI-H460; assay: Antiproliferative activity against human NCI-H460 cells after 24 hrs by MTT assay; format: functional, cell-based; settings: NCI-H460, 24 h
[10] = test system: U-251; assay: Antiproliferative activity against human U251 cells after 24 hrs by MTT assay; format: functional, cell-based; settings: U-251, 24 h
[11] = test system: A549; assay: Antiproliferative activity against human A549 cells after 24 hrs by MTT assay; format: functional, cell-based; settings: A549, 24 h
[12] = test system: KB; assay: Antiproliferative activity against human KB cells by MTT assay; format: functional, cell-based

SMILES | IC50 [1] | IC50 [2] | IC50 [3] | IC50 [4] | IC50 [5] | IC50 [6] | IC50 [7] | IC50 [8] | IC50 [9] | IC50 [10] | IC50 [11] | IC50 [12]
N#Cc1ccc(-c2nc3sc4c(c3c(=O)[nH]2)CCCC4)cc1 | > 100 µM | > 100 µM | > 100 µM | > 100 µM | > 100 µM | > 100 µM | – | – | – | – | – | –
O=c1c2c3c(sc2ncn1Cc1ccc(Br)cc1)CCCC3 | – | – | – | – | – | – | 14.9 µM | – | – | – | – | –
Cc1ccc(-c2nc(O)c3c4c(sc3n2)CCCC4)cc1 | > 100 µM | > 100 µM | 99.1 µM | 86.8 µM | > 100 µM | 69.9 µM | – | – | – | – | – | –
O=c1[nH]c(-c2cccc([N+](=O)[O-])c2)nc2sc3c(c12)CCCC3 | 2.8 µM | 1.9 µM | 8.3 µM | 91.8 µM | > 100 µM | 12.6 µM | – | – | – | – | – | –
O=C(CSc1nc2sc3c(c2c(=O)n1Cc1ccccc1)CCCC3)NNC(=S)Nc1ccccc1 | – | 5.33 µM | – | – | – | – | – | 5.33 µM | – | – | – | –
COc1ccc(-c2nc(O)c3c4c(sc3n2)CCCC4)cc1OC | 19.6 µM | 11 µM | 14.5 µM | 1.9 µM | > 100 µM | 12.5 µM | – | – | – | – | – | –
O=c1[nH]c(-c2ccc(F)cc2)nc2sc3c(c12)CCCC3 | 9.1 µM | 8.6 µM | 16.9 µM | > 100 µM | > 100 µM | 14.5 µM | – | – | – | – | – | –
O=[N+]([O-])c1ccc(-c2nc(O)c3c4c(sc3n2)CCCC4)cc1 | 71.1 µM | 65.6 µM | 44.2 µM | > 100 µM | > 100 µM | 51.7 µM | – | – | – | – | – | –
O=c1[nH]c(-c2ccc(Cl)cc2Cl)nc2sc3c(c12)CCCC3 | 77.1 µM | 90.9 µM | 89.6 µM | 28.7 µM | > 100 µM | 99.5 µM | – | – | – | – | – | –
Nc1nc(NNC(=O)c2ccncc2)nc2sc3c(c12)CCCC3 | – | – | – | – | – | – | – | – | 7.7 µM | 13.3 µM | 18.9 µM | –
COc1cccc(-c2nc3sc4c(c3c(=O)[nH]2)CCCC4)c1O | 34.2 µM | 32.8 µM | 49.3 µM | > 100 µM | > 100 µM | 59.4 µM | – | – | – | – | – | –
Oc1nc(-c2ccc(Cl)cc2)nc2sc3c(c12)CCCC3 | 33.8 µM | 19.2 µM | 33.8 µM | > 100 µM | > 100 µM | 33.2 µM | – | – | – | – | – | –
Oc1nc(-c2ccccc2)nc2sc3c(c12)CCCC3 | 8.3 µM | 4.8 µM | 18.3 µM | > 100 µM | > 100 µM | 12 µM | – | – | – | – | – | –
COc1cc(OC)cc(-c2nc(O)c3c4c(sc3n2)CCCC4)c1 | 22.3 µM | 26.3 µM | 48.1 µM | 7.3 µM | > 100 µM | 41.9 µM | – | – | – | – | – | –
COc1cccc(-c2nc3sc4c(c3c(=O)[nH]2)CCCC4)c1 | > 100 µM | > 100 µM | > 100 µM | 9.6 µM | > 100 µM | > 100 µM | – | – | – | – | – | –
CCCCOc1nc2sc3c(c2c(=O)n1Cc1ccccc1)CCCC3 | – | – | – | – | – | – | – | – | – | – | – | 19 µM

Reference: ChEMBL document CHEMBL4130368, “Thienopyrimidine derivatives exert their anticancer efficacy via apoptosis induction, oxidative stress and mitotic catastrophe” (Eur J Med Chem, 2017)
